In assay [1] the target is VldE (Streptomyces hygroscopicus, UniProt Q15JG1, H182A). The assay is described as follows: X-ray crystal structure. The format is binding. The settings on record: apo crystals soaked with 10 mM GDP-glucose, only GDP found; pH 8.0.
Assay [2] deals with VldE (Streptomyces hygroscopicus, UniProt Q15JG1, D158N). The assay is described as follows: X-ray crystal structure. The format is binding. The following applies: apo crystals soaked with 10 mM GDP-glucose, only GDP found; pH 8.5.
VldE (Streptomyces hygroscopicus, UniProt Q15JG1, D158N), sequence (Q15JG1 whole entry D158N): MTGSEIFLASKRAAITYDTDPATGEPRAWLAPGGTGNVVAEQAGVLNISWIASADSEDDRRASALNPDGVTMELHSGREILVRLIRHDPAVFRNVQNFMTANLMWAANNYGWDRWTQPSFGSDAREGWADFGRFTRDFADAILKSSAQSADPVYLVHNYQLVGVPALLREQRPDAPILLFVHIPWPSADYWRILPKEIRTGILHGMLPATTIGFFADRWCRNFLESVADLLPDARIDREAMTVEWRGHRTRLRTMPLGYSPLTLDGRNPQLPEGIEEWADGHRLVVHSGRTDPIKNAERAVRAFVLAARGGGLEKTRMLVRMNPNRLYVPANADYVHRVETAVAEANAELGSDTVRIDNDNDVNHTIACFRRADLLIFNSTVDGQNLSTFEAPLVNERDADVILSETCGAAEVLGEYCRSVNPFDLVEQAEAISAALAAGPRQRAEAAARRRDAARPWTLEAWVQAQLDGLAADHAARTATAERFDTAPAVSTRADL

Structures are written as SMILES.

VldE (Streptomyces hygroscopicus, UniProt Q15JG1, H182A), sequence (Q15JG1 whole entry H182A): as the sequence (Q15JG1 whole entry D158N) above, with N158D, H182A counted along it

For `Nc1nc2c(ncn2[C@@H]2O[C@H](COP(=O)(O)OP(=O)(O)O)[C@@H](O)[C@H]2O)c(=O)[nH]1` [GDP], the X-ray crystal structure result in assay [1] and in assay [2] was “only the crystal structures of the two variants in complex with GDP were obtained” throughout.
